One molecule from patent US11291719B2, “Methods and compositions for modulating Akt3” (Augusta University Research Institute, Inc., priority 2016, dated 2022) can be followed below.

The structures appear in SMILES notation.

One assay relates to Tregs. The experiment in a line: Percent of Tregs in Rag-/- mice. Type of assay: in vivo, mouse. Conditions: compared to untreated. From the text:
FIG. 22A is a bar graph showing the number of CD4^+ T cells per 10^6 live cells in the spleen of WT, UT, iTreg, mJJ64A, and mJJ64A treated iTreg treated Rag^−/− mice. The X-axis represents treatment group and the Y-axis represents number of CD4^+ cells per 10^6 live cells. FIG. 22B is a bar graph showing the percent of FoxP3^+ cells per CD4^+ T cells in the spleen of WT, UT, iTreg, mJJ64A, and mJJ64A treated iTreg treated Rag^−/− mice. The X-axis represents treatment group and the Y-axis represents number of FoxP3^+ cells per CD4^+ cells. FIG. 22C is a bar graph showing the percent of FoxP3^− cells per CD4^+ T cells in the spleen of WT, UT, iTreg, mJJ64A, and mJJ64A treated iTreg treated Rag^−/− mice. The X-axis represents treatment group and the Y-axis represents number of FoxP3^− cells per CD4^+ cells. FIG. 22D is a bar graph showing the number of CD4^+ T cells per 10^6 live cells in the lymph node of WT, UT, iTreg, mJJ64A, and mJJ64A treated iTreg treated Rag^−/− mice. The X-axis represents treatment group and the Y-axis represents number of CD4^+ cells per 10^6 live cells. FIG. 22E is a bar graph showing the percent of FoxP3^+ cells per CD4^+ T cells in the lymph node of WT, UT, iTreg, mJJ64A, and mJJ64A treated iTreg treated Rag^−/− mice. The X-axis represents treatment group and the Y-axis represents number of FoxP3^+ cells per CD4^+ cells. […]

In another assay the test system is FoxP3. The experiment in a line: Western blot of FoxP3 in Tconv cells during iTreg induction. Type of assay: cell-based. Conditions: TGF-β induced. From the text:
FIG. 12 is a western blot showing the expression of FoxP3, pAkt3, Akt3, pAkt1, and Akt1 in activated Tconv cells induced with TGF-β and treated with various concentrations of mJJ64A.
Background: In western blotting, separated proteins are transferred to a membrane and probed.

Turning to `N#Cc1ccc2nccc(Nc3ccc(C(=O)Nc4ccc(Nc5ccncc5)cc4)cc3)c2c1` [Compound 2], the “percent of Tregs in the spleen and mesenteric lymph nodes” value with Tregs was “increased”. The “expression of FoxP3 in Tconv cells during iTreg induction” value in the assay on FoxP3 was “increased”.
